Data published in the supplement of paper PMC10307832.

What was measured:
Experiment in all cases: relative viability (nuclei count vs DMSO), 5 days (fraction); higher = more cells survive
[1] = compound: CN(C)CC1=CC(=CC=C1)N=C(C2=CC=CC=C2)C3=C(NC4=C3C=CC(=C4)C(=O)N(C)C)O
Procedure, shortened: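 MetaXpress counted nuclei in 4× images of lung cancer cell lines that had been fixed, permeabilised and Hoechst-stained in one step. Before that, cells in 1536-well plates were kept overnight at 37 °C, pinned with five √10-spaced library-drug doses on vehicle-anchored plates, and cultured 5 days without medium change. Viability takes treated-well nuclei over vehicle-well nuclei and uses the median across plates. Plates were accepted only at control CV below 25% and at least one doubling.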

[2] = compound: CN(C)CC1=CC(=CC=C1)N=C(C2=CC=CC=C2)C3=C(NC4=C3C=CC(=C4)C(=O)N(C)C)O + CC(=O)Nc1cccc(-n2c(=O)n(C3CC3)c(=O)c3c(Nc4ccc(I)cc4F)n(C)c(=O)c(C)c32)c1 [Trametinib] (partner 0.02 µM)
Procedure, shortened: (§1)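 Lung cancer cell lines in 1536-well plates got either a single drug or a fixed anchor-drug dose together with five library-drug doses (not always all listed) in √10 steps, by pin tool, on the day after seeding. Nuclei were counted after 5 days, and relative viability is the treated-to-vehicle ratio of nuclei counts. Values are medians of duplicate plates.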

[3] = compound: CN(C)CC1=CC(=CC=C1)N=C(C2=CC=CC=C2)C3=C(NC4=C3C=CC(=C4)C(=O)N(C)C)O + CC(=O)c1c(C)c2cnc(Nc3ccc(N4CCNCC4)cn3)nc2n(C2CCCC2)c1=O [Palbociclib] (partner 0.5 µM)
Procedure, shortened: as §1

[4] = compound: CN(C)CC1=CC(=CC=C1)N=C(C2=CC=CC=C2)C3=C(NC4=C3C=CC(=C4)C(=O)N(C)C)O + CCNC(=O)c1noc(-c2cc(C(C)C)c(O)cc2O)c1-c1ccc(CN2CCOCC2)cc1 [Luminespib] (partner 0.01 µM)
Procedure, shortened: as §1

[5] = compound: CN(C)CC1=CC(=CC=C1)N=C(C2=CC=CC=C2)C3=C(NC4=C3C=CC(=C4)C(=O)N(C)C)O + COc1cc2c(Oc3ccc(NC(=O)C4(C(=O)Nc5ccc(F)cc5)CC4)cc3F)ccnc2cc1OCCCN1CCOCC1 [Foretinib] (partner 0.25 µM)
Procedure, shortened: as §1

[6] = compound: CN(C)CC1=CC(=CC=C1)N=C(C2=CC=CC=C2)C3=C(NC4=C3C=CC(=C4)C(=O)N(C)C)O + COc1cccc2cc(-c3nc([C@H]4CC[C@H](C(=O)O)CC4)n4ncnc(N)c34)[nH]c12 [OSI-027] (partner 0.5 µM)
Procedure, shortened: as §1

[7] = compound: CN(C)CC1=CC(=CC=C1)N=C(C2=CC=CC=C2)C3=C(NC4=C3C=CC(=C4)C(=O)N(C)C)O + Cc1cc(Nc2cc(N3CCN(C)CC3)nc(Sc3ccc(NC(=O)C4CC4)cc3)n2)n[nH]1 [Tozasertib] (partner 0.1 µM)
Procedure, shortened: as §1

[8] = compound: CN(C)CC1=CC(=CC=C1)N=C(C2=CC=CC=C2)C3=C(NC4=C3C=CC(=C4)C(=O)N(C)C)O + Cc1nc(Nc2ncc(C(=O)Nc3c(C)cccc3Cl)s2)cc(N2CCN(CCO)CC2)n1 [Dasatinib] (partner 0.075 µM)
Procedure, shortened: as §1

[9] = compound: CN(C)CC1=CC(=CC=C1)N=C(C2=CC=CC=C2)C3=C(NC4=C3C=CC(=C4)C(=O)N(C)C)O + N=C(N)NC(=N)NCCc1ccccc1 [Phenformin] (partner 250 µM)
Procedure, shortened: as §1

[10] = compound: CN(C)CC1=CC(=CC=C1)N=C(C2=CC=CC=C2)C3=C(NC4=C3C=CC(=C4)C(=O)N(C)C)O + NC(=O)Nc1cc(-c2cccc(F)c2)sc1C(=O)N[C@H]1CCCNC1 [AZD7762] (partner 0.2 µM)
Procedure, shortened: as §1

[11] = compound: CN(C)CC1=CC(=CC=C1)N=C(C2=CC=CC=C2)C3=C(NC4=C3C=CC(=C4)C(=O)N(C)C)O + Nc1nc2[nH]cc(CCc3ccc(C(=O)N[C@@H](CCC(=O)O)C(=O)O)cc3)c2c(=O)[nH]1 [Pemetrexed] (partner 0.2 µM)
Procedure, shortened: as §1

[12] = compound: CN(C)CC1=CC(=CC=C1)N=C(C2=CC=CC=C2)C3=C(NC4=C3C=CC(=C4)C(=O)N(C)C)O + Nc1ncn([C@H]2C[C@H](O)[C@@H](CO)O2)c(=O)n1 [Decitabine] (partner 2 µM)
Procedure, shortened: as §1

[13] = compound: CN(C)CC1=CC(=CC=C1)N=C(C2=CC=CC=C2)C3=C(NC4=C3C=CC(=C4)C(=O)N(C)C)O + O=C(CCCCCCC(=O)Nc1ccccc1)NO [Vorinostat] (partner 1 µM)
Procedure, shortened: as §1

[14] = compound: CN(C)CC1=CC(=CC=C1)N=C(C2=CC=CC=C2)C3=C(NC4=C3C=CC(=C4)C(=O)N(C)C)O + O=C(c1cc(Cc2n[nH]c(=O)c3ccccc23)ccc1F)N1CCN(C(=O)C2CC2)CC1 [Olaparib] (partner 8 µM)
Procedure, shortened: as §1

Cell Line: SW 900
- relative viability ([1]; 0.08 µM): 0.997
- relative viability ([1]; 0.253 µM): 0.886
- relative viability ([1]; 0.8 µM): 0.983
- relative viability ([1]; 2.53 µM): 0.934
- relative viability ([1]; 8 µM): 0.937
- relative viability ([2]; first compound 0.08 µM): 0.819
- relative viability ([2]; first compound 0.253 µM): 0.738
- relative viability ([2]; first compound 0.8 µM): 0.702
- relative viability ([2]; first compound 2.53 µM): 1.04
- relative viability ([2]; first compound 8 µM): 1.24
- relative viability ([3]; first compound 0.08 µM): 0.517
- relative viability ([3]; first compound 0.253 µM): 0.481
- relative viability ([3]; first compound 0.8 µM): 0.527
- relative viability ([3]; first compound 2.53 µM): 0.569
- relative viability ([3]; first compound 8 µM): 0.622
- relative viability ([4]; first compound 0.08 µM): 0.175
- relative viability ([4]; first compound 0.253 µM): 0.167
- relative viability ([4]; first compound 0.8 µM): 0.188
- relative viability ([4]; first compound 2.53 µM): 0.18
- relative viability ([4]; first compound 8 µM): 0.202
- relative viability ([5]; first compound 0.08 µM): 0.867
- relative viability ([5]; first compound 0.253 µM): 0.842
- relative viability ([5]; first compound 0.8 µM): 0.7
- relative viability ([5]; first compound 2.53 µM): 0.887
- relative viability ([5]; first compound 8 µM): 0.861
- relative viability ([6]; first compound 0.08 µM): 0.677
- relative viability ([6]; first compound 0.253 µM): 0.652
- relative viability ([6]; first compound 0.8 µM): 0.663
- relative viability ([6]; first compound 2.53 µM): 0.664
- relative viability ([6]; first compound 8 µM): 0.537
- relative viability ([7]; first compound 0.08 µM): 0.669
- relative viability ([7]; first compound 0.253 µM): 0.58
- relative viability ([7]; first compound 0.8 µM): 0.519
- relative viability ([7]; first compound 2.53 µM): 0.562
- relative viability ([7]; first compound 8 µM): 0.552
- relative viability ([8]; first compound 0.08 µM): 0.364
- relative viability ([8]; first compound 0.253 µM): 0.582
- relative viability ([8]; first compound 0.8 µM): 0.55
- relative viability ([8]; first compound 2.53 µM): 0.622
- relative viability ([8]; first compound 8 µM): 0.573
- relative viability ([9]; first compound 0.08 µM): 0.613
- relative viability ([9]; first compound 0.253 µM): 0.668
- relative viability ([9]; first compound 0.8 µM): 0.646
- relative viability ([9]; first compound 2.53 µM): 0.492
- relative viability ([9]; first compound 8 µM): 0.602
- relative viability ([10]; first compound 0.08 µM): 0.664
- relative viability ([10]; first compound 0.253 µM): 0.581
- relative viability ([10]; first compound 0.8 µM): 0.55
- relative viability ([10]; first compound 2.53 µM): 0.649
- relative viability ([10]; first compound 8 µM): 0.685
- relative viability ([11]; first compound 0.08 µM): 0.439
- relative viability ([11]; first compound 0.253 µM): 0.495
- relative viability ([11]; first compound 0.8 µM): 0.497
- relative viability ([11]; first compound 2.53 µM): 0.535
- relative viability ([11]; first compound 8 µM): 0.445
- relative viability ([12]; first compound 0.08 µM): 0.385
- relative viability ([12]; first compound 0.253 µM): 0.48
- relative viability ([12]; first compound 0.8 µM): 0.43
- relative viability ([12]; first compound 2.53 µM): 0.409
- relative viability ([12]; first compound 8 µM): 0.472
- relative viability ([13]; first compound 0.08 µM): 0.56
- relative viability ([13]; first compound 0.253 µM): 0.495
- relative viability ([13]; first compound 0.8 µM): 0.452
- relative viability ([13]; first compound 2.53 µM): 0.606
- relative viability ([13]; first compound 8 µM): 0.606
- relative viability ([14]; first compound 0.08 µM): 0.813
- relative viability ([14]; first compound 0.253 µM): 0.962
- relative viability ([14]; first compound 0.8 µM): 1.02
- relative viability ([14]; first compound 2.53 µM): 0.8
- relative viability ([14]; first compound 8 µM): 0.967
